Reference: patent US5594004A, “Compound with platelet aggregation inhibitor activity” (Meiji Seika Kabushiki Kaisha, priority 1993, dated 1997)
Counter-ions that a name gives are not always drawn.

Assays:
[1] = test system: human PRP (platelet rich plasma); experiment: Pharmacological test 1: inhibition of ADP-induced platelet aggregation in human PRP; type: cell-based; conditions: Platelet, ADP 5 μM inducer; for inhibition at 1 µM: inhibition rate at 10^-6 M; for IC50: Homo sapiens, platelet aggregation
Protocol: Pharmacological test 1 Inhibition of platelet aggregation
The effect of the compound according to the present invention on inhibiting the platelet aggregation was examined with human PRP (platelet rich plasma).
Nine volumes of a blood sample was taken out of the vein of a normal human with a syringe in which one volume of a 3.8% sodium citrate solution was charged. The blood sample was centrifuged at 170×g at room temperature for 10 minutes. The supernatant thus obtained was isolated as PRP. The residual blood sample that PRP had been taken out was centrifuged at 2,700×g for 15 minutes. The supernatant was then taken as platelet poor plasma (PPP).
Platelet aggregation test was conducted with an aggligometer (PAM-8C; manufactured by MEBANICKS Co., Ltd.). Compounds to be tested were dissolved in a 50% DMSO saline, a 50% methanol saline or physiological saline. The compound and PRP were preincubated for 2 minutes. The ADP (CHRONO-PAR REAGENTS 384 ADP, CHRONO-LOG Corp.) was used as an inducer in the form of a dilution with saline so that the final concentration is 5 μM.
Anti-platelet aggregation activity was obtained as an inhibition rate to platelet aggregation effect of ADP in the absence of a compound to be tested as follows: [formula] Physiological test 2 Inhibition of fibrinogen bonding to platelet GPIIb/IIIa

[2] = molecular target: T1, human platelet GPIIb/IIIa (Homo sapiens, UniProt P05106+P08514); experiment: Pharmacological test 2: inhibition of fibrinogen bonding to platelet GPIIb/IIIa (solid phase assay, biotinylated fibrinogen); type: binding; conditions: for inhibition at 10 µM: inhibition rate at 10^-5 M; for inhibition at 0.1 µM: inhibition rate at 10^-7 M; for IC50: fibrinogen bonding to GPIIb/IIIa
T1 construct: platelets collected from healthy adults; from tissue; host or cells: platelets from healthy adults (solubilized with octylglucoside, purified on GRGDSPK-Sepharose)
T1 sequence (P08514 32-887 limits assumed): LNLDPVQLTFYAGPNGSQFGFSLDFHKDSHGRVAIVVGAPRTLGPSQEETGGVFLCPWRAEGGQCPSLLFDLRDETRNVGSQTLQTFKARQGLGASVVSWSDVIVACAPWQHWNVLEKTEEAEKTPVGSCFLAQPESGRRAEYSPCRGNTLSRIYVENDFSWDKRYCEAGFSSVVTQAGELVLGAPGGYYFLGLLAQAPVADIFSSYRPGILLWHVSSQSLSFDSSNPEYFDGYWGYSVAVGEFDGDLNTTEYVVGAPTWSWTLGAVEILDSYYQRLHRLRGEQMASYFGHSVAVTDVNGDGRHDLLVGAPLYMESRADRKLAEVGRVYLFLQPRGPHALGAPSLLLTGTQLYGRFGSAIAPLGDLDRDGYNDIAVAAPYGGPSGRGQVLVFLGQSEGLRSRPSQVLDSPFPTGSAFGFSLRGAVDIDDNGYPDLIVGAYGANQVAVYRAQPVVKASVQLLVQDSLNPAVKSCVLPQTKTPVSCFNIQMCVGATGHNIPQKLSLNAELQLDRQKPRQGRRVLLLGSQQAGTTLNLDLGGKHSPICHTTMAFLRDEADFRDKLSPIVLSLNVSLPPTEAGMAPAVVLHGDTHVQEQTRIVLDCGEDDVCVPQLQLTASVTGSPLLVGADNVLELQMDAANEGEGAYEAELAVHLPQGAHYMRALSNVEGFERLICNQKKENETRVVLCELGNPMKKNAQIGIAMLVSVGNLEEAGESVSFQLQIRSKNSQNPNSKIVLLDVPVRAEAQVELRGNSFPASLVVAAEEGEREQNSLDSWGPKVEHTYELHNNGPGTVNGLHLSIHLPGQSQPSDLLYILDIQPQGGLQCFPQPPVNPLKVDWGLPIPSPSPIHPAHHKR
T1 sequence (P08514 891-1039 limits assumed): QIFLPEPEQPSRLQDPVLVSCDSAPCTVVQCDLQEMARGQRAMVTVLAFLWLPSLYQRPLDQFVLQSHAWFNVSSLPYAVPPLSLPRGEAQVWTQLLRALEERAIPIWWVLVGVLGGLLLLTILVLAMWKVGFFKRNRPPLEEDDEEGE
T1 sequence (P05106 27-788): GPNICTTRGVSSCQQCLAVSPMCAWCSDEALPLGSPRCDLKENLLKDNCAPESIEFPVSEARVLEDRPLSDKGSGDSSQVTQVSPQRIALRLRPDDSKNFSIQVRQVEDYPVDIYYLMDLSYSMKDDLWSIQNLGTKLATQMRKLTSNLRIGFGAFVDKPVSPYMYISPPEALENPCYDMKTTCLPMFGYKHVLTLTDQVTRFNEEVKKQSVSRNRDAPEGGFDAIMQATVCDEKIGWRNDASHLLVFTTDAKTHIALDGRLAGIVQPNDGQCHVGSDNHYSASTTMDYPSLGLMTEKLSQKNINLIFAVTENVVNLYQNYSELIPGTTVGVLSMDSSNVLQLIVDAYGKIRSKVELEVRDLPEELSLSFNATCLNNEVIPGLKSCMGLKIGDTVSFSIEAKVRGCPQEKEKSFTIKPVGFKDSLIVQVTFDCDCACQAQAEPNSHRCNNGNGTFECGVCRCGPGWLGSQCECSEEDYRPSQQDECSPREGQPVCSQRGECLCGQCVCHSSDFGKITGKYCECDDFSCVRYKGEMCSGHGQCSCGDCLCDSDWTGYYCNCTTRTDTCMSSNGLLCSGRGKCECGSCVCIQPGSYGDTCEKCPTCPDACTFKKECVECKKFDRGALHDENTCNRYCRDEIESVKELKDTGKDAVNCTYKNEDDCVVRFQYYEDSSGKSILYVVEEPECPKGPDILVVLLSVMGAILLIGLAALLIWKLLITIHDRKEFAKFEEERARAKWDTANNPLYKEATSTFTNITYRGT
Protocol: Inhibiting effect of the compound according to the present invention on the binding of platelet GPIIb/IIIa and fibrinogen was examined with a solid phase human platelet GPIIb/IIIa bonding assay using biotinylated fibrinogen as a ligand. Human platelet GPIIb/IIIa was purified according to the method described by Pytela, R. et al. (Science, 231, 1559-1561 (1986)). […] The same amount of TBS containing 50 mM octylglucoside and 2 mM PMSF was added to the pellet obtained in order to solubilize the membrane protein at 4° C. for 20 minutes. […] The solubilized protein solution was adsorbed on a GRGDSPK-Sepharose column which had been equilibrated with TBS (Buffer A) containing 50 mM Octylglucoside, 1 mM CaCl2 and MgCl2. After the column was washed with Buffer A, the adsorbed GPIIb/IIIa was eluted with Buffer A containing 2 mM GRGDSP peptide. GRGDSPK-Sepharose was prepared by coupling GRGDSPK peptide and CNBr-activated Sepharose 4B (Pharmacia) according to the instruction of the manufacturer. Then, solid phase human platelet GPIIb/IIIa bonding assay was carried out according to the method of Mori et al. […] Purified human platelet GPIIb/IIIa was adjusted in an amount of 2 μg/ml and adsorbed in an amount of 50 μl on a 96 well-microtiter plate at 4° C. overnight. After washing with TBS containing 1 mM CaCl2 and 1 mM MgCl2, 100 μl of 1% bovine serum albumin was added, blocking was conducted at 4° C. overnight. […] After washing with TBS-Tween 20, 50 μl of peroxidase labelled avidin which had been diluted with TBS to 4,000 times was added. The reaction was continued for 20 minutes. […] A 50 μl portion of a 0.1M citrate buffer containing 0.05% NaN3 was added to stop the reaction, and absorbance at 415 nm was measured. The rate of Bonding inhibition was calculated from the following formula: [formula]

SMILES: NCC1CCC(c2ncc(-c3ccc(OCC(=O)O)c(OCC(=O)O)c3)o2)CC1 (stereo not shown) [Example 4, 2-(4-aminomethylcyclohexyl)-5-(3,4-dicarboxymethoxy)phenyloxazole]
- inhibition at 1 µM [1]: 85%
- inhibition at 10 µM [2]: 73%

SMILES: NC[C@H]1CC[C@H](C(=O)NCCc2ccc(OCC(=O)O)c(OCC(=O)O)c2)CC1 [Example 7, [[4-[[2-[trans-4-(aminomethyl)cyclohexyl]carbonylamino]ethyl]-o-phenylene]dioxy]diacetic acid trifluoroacetate]
- inhibition at 1 µM [1]: 48%
- inhibition at 10 µM [2]: 27%

SMILES: CN(CC(=O)c1ccc(OCC(=O)O)c(OCC(=O)O)c1)C(=O)CCC1CCNCC1 [Example 9, [[4-[[N-[3-(piperidin-4-yl)propionyl]-N-methylamino]acetyl]-o-phenylene]dioxy]diacetic acid trifluoroacetate]
- inhibition at 1 µM [1]: 79%
- inhibition at 0.1 µM [2]: 73%

SMILES: O=C(O)COc1ccc(C(=O)CNC(=O)CCC2CCNCC2)cc1OCC(=O)O [Example 10, [[4-[[N-[3-(piperidin-4-yl)propionyl]amino]acetyl]-o-phenylene]dioxy]diacetic acid trifluoroaceetate]
- IC50 [1]: 350 nM
- inhibition at 1 µM [1]: 85%
- inhibition at 0.1 µM [2]: 82%

SMILES: O=C(O)COc1ccc(C(=O)CNC(=O)c2cc3c(s2)CCNC3)cc1OCC(=O)O [Example 18, [[4-[[[(4,5,6,7-tetrahydrothieno [3,2-c]pyridin-2-yl]carbonyl]amino]acetyl]-o-phenylene]dioxy]diacetic acid trifluoroacetate]
- IC50 [1]: 140 nM
- IC50 [2]: 1700 nM

SMILES: CN(CC(=O)c1ccc(OCC(=O)O)c(OCC(=O)O)c1)C(=O)c1cc2c(s1)CCNC2 [Example 19, [[4-[[[(4,5,6,7-tetrahydrothieno[3,2-c]pyridin-2-yl)carbonyl]-N-methylamino]acetyl]-o-phenylene]dioxy]diacetic acid trifluoroacetate]
- IC50 [1]: 550 nM
- IC50 [2]: 3600 nM

SMILES: O=C(O)COc1ccc(C(O)CNC(=O)c2cc3c(s2)CCNC3)nc1 (stereo not shown) [Example 21, 2-[1-hydroxy-2-[(4,5,6,7-tetrahydrothieno[3,2-c]pyridin-2-yl)carbonylamino]ethyl]pyridin-5-yloxyacetic acid trifluoroacetate]
- IC50 [1]: 500 nM
- IC50 [2]: 10000 nM

SMILES: O=C(O)COc1ccc(C(=O)CNC(=O)c2cc3c(s2)CCNC3)cc1 [Example 22, 4-[[(4,5,6,7-tetrahydrothieno[3,2-c]pyridin-2-yl)carbonyl]aminoacetyl]phenoxyacetic acid trifluoroacetate]
- IC50 [1]: 1200 nM
- IC50 [2]: > 10000 nM

SMILES: Cc1c(C(=O)NCC(=O)c2ccc(OCC(=O)O)c(OCC(=O)O)c2)sc2c1CNCC2 [Example 27, [[4-[[[(3-methyl-4,5,6,7-tetrahydrothieno[3.2-c]pyridin-2-yl)carbonyl]amino]acetyl]-o-phenylene]dioxy]diacetic acid trifluoroacetate]
- IC50 [1]: 2500 nM
- IC50 [2]: 9500 nM
